Experimental findings from patent US8138191B2, “Inhibitor compounds and cancer treatment methods” (Critical Outcome Technologies Inc., priority 2007, dated 2012) are described below.

The term pIC50 denotes the negative decadic logarithm of the IC50, by convention in mol/L.

Data set [1] deals with DMS114. Briefly: in vitro IC50 against cancer cell lines, DMS114. The class given is cell-based. The conditions noted are these: Homo sapiens, DMS-114, 72 h; DMS114, SCLC, 3 days. As to the method: (§1) Briefly, cells were plated in plastic tissue culture plates and grown under standard conditions for each cell line, in carbon dioxide/oxygen atmosphere in plastic tissue culture plates, in the presence of COTI-2 or COTI-219 compounds at 35° C. for 3 days. Control cultures were treated with vehicle minus compound. Cells were counted after 3 days in culture and at a cell density of no more than 80%. The following cell lines, obtained from the National Cancer Institute, were tested: human SCLC cell lines DMS153, DMS114, SHP77; human NSCLC cell lines H226, A460, A560; human breast cancer cell lines T47D, MCF7; human colon cancer cell line HT29; and, human Leukemia cell lines K562, HL60.

For data set [2], the system named is SHP-77 human SCLC cell line tumor xenografts. In words: Nude mouse model of human SCLC, SHP-77 xenografts. In kind it is in vivo. As to conditions: IP on alternate days from Day 3, 31 days. As to the method: The nude mouse model of human SCLC was used to evaluate the in vivo efficacy of compounds of the present invention in comparison with several known chemotherapeutic agents. Nude mice were obtained form the National Cancer Institute and the SHP-77 human SCLC cell line was chosen for metastatic tumor xenografts. The control group consisted of 10 animals, each of which were administered bilateral thigh injections of a prescribed volume of tumor cells. There were 6 treatment groups, each containing 5 animals: COTI-2, COTI-4, COTI-219, Taxotere® (docetaxel), Cisplatin® (cis-diamminedichloroplatinum) and Tarceva® (erlotinib) The therapeutic agent was administered by intraperitoneal (IP) injection on alternate days beginning on Day 3 post tumor cell injection. Each animal in a treatment group was administered bilateral thigh injections with the same prescribed volume of tumor cells as the control animals. Treatment continued for 31 days, following which the animals were euthanized and tissues were collected for subsequent analysis.
In general terms: Xenograft models place foreign cells or tissue in a host animal.

Data set [3] concerns SW620. In words: Tumor cell proliferation, single agents and combinations, SW620. The class given is cell-based, human. The conditions noted are these: Homo sapiens. As for the experimental part: (§2) The 3 cell lines were treated as follows:
(§3) Day 1: Cells were plated in 96-well flat bottom plates (VWR, Mississauga, ON, Canada) and allowed to adhere overnight.
(§4) All treated and control cells were, therefore, exposed to a 1% DMSO concentration plus the desired concentration of COTI-2.
(§5) The CI, a numerical value calculated as described in equation A, also provides a quantitative measure of the extent of drug interaction. A CI of less than, equal to, and more than 1 indicates synergy, additivity, and antagonism, respectively. CI=(CAx/ICx,A)+(CB,x/ICx,B) Equation A: Where CA,x and CB,x, are the concentrations of drug A and drug B used in combination to achieve x % drug effect. ICx,A and ICx,B are the concentrations for single agents to achieve the same effect.

Data set [4] has as its system H1975. In words: CellTiter-Blue growth inhibition, single agents and combinations, H1975. The conditions noted are these: Homo sapiens, read-out: Mean IC50, single agent. In kind it is cell-based. As for the experimental part: (§6) The stock concentration was further diluted to 1 mM and added to a drug plate. […] Following dilution, 2 μl of test agent was transferred to the corresponding wells of a cell-containing 96-well plate with 198 μl of growth media. Tarceva® (erlotinib) was supplied by LC Labs (Woburn, Mass.).
(§7) Viable cell numbers were quantified by the CellTiter-Blue® cell viability assay, which measures the conversion of the indicator dye (resazurin) to resorufin, an indicator of cell viability. Experiments were repeated at least twice with the same concentrations to determine growth inhibitory activity.
as §5

The test system of data set [5] is SF-295. In words: IC50 human glioma/astrocytoma cell lines (alamar Blue), SF-295.
Experimental: (§8) Cell lines were obtained from the Human Tissue Culture Collection (ATCC), grown and maintained under ATCC-specified conditions, and tested to ensure viability and lack of contaminating mycoplasma and common viruses. […] A viability stain (alamar Blue) was added to cells after 4-7 days of drug exposure (approximately 4 doublings of control cells; maximum cell density in wells approximately 80%), and assayed for total cellular metabolic activity (a function of population density of live cells) by absorbance.
Data set [6] relates to SF-268. In words: IC50 human glioma/astrocytoma cell lines (alamar Blue), SF-268. A general note: Alamar Blue is a resazurin reagent that responds to reducing activity.
Experimental: as §8
Data set [7] deals with HCT-15. In words: Tumor cell proliferation, single agents and combinations, HCT-15. As to conditions: Homo sapiens. The class given is cell-based. As for the experimental part:
as §2, §3, §4, §5

For data set [8], the system named is H292. In words: CellTiter-Blue growth inhibition, single agents and combinations, H292. In kind it is cell-based. The conditions noted are these: Homo sapiens, read-out: Mean IC50, single agent. As for the experimental part: as §6, §7, §5
Data set [9] has as its system Standard lab mice. Briefly: Escalating dose acute toxicity study in mice. As to conditions: 4, 8, 16 mg/kg alternate day IP, 28 days. An excerpt:
Mice were given alternate day IP injections for 28 days. […] Blood and tissue samples were harvested for histopathology.

Data set [10] deals with HT-29. Briefly: CellTiter-Blue growth inhibition, single agents and combinations, HT-29. The conditions noted are these: Homo sapiens, read-out: Mean IC50, single agent. In kind it is cell-based. As to the method: as §6
Cells were grown to 70% confluency, trypsinized, counted, and seeded in 96-well flat-bottom plates at a final concentration of 2.5×10^3−5×10^3 cells/well (Day 0). […] Viable cell numbers were quantified by the CellTiter-Blue® cell viability assay, which measures the conversion of the indicator dye (resazurin) to resorufin, an indicator of cell viability. Experiments were repeated at least twice with the same concentrations to determine growth inhibitory activity.
as §5

Data set [11] relates to K562. In words: in vitro IC50 against cancer cell lines, K562. In kind it is cell-based. The conditions noted are these: Homo sapiens, 72 h; K562, Leukemia, 3 days. As to the method: as §1
For data set [12], the system named is SHP77. In words: in vitro IC50 against cancer cell lines, SHP77. In kind it is cell-based. The conditions noted are these: Homo sapiens, 72 h; SHP77, SCLC, 3 days. As to the method: as §1

pIC50: −log10 of the molar value. Like-named read-outs stand apart in the source and are kept apart here.

As for `CN1CCN(C(=S)NN=C2c3ncccc3-c3cccnc32)CC1` [COTI-219], the pIC50 is 6.57 in [1]; 8.13 in data set [3] (SW-620, SW620, Colon, KRAS - MUT, read-out: Mean IC50, single agent); 7.00 in data set [4] (NCI-H1975, H1975, NSCLC, EGFR - MUT, 72 h); 5.62 in data set [5]; 5.93 in [6]; 8.29 in [7] (HCT-15, Colon, KRAS - MUT, read-out: Mean IC50, single agent). In addition, the pIC50 in [8] (NCI-H292, H292, NSCLC, EGFR - WT, 72 h) is 7.70; in data set [10] (HT-29, Colon, KRAS - WT, 72 h), 8.13; in [11] it was 6.65; in [12], 6.10. The “average number of tumors per injection site” value in data set [2] is given as 0.38. Further, the mean tumor volume in data set [2] is 53+/−28 mm^3. Further, the “acute toxicity / adverse effects” value in data set [9] is recorded as “No evidence of acute toxicity”. Further, in [9], the weight loss result is “None of the drugs produced any weight loss”.

For `S=C(N/N=C1/CCCc2cccnc21)N1CCN(c2ccccn2)CC1` [COTI-2], the pIC50 in data set [1] was 7.29; in data set [3] (SW-620, read-out: Mean IC50, single agent) it was 6.78; in data set [4] (NCI-H1975, 72 h), 8.00; in [5] it was 6.74; in data set [6], 7.18; in data set [7] (HCT-15, read-out: Mean IC50, single agent) it was 8.08. For the same molecule, the pIC50 is 8.41 in data set [8] (NCI-H292, 72 h); 6.70 in [10] (HT-29, 72 h); 6.75 in data set [11]; 6.81 in data set [12]. Besides, the “average number of tumors per injection site” value in [2] is recorded as 0.28. The molecule further yielded a mean tumor volume in [2] of 9.9 mm^3. Also, in data set [9], the “acute toxicity / adverse effects” value was “No evidence of acute toxicity”. Also, in data set [9], the weight loss result is given as “None of the drugs produced any weight loss”.
